# Experimental data published in patent US8513303B2, “Antimicrobial agent” (De Montfort University, priority 2007, dated 2013).
# Experiments:
# [1] = system: Escherichia coli ATCC 10536; assay: Quantitative suspension test, log10 reduction in bacterial numbers; assay type: cell-based; conditions: 0.2% w/v H2O2
# Excerpt: (§1) Neutralisation (nullification of activity) of antimicrobial agents is required to prevent inhibitory concentrations from being transferred to the recovery medium (as discussed, for example, in Russell A. D. (2004) Factors influencing the efficacy of antimicrobial agents in Principles and Practice of Disinfection Preservation and Sterilization, 4th edition, eds Fraise A. P., Lambert P. A. and Maillard J. Y., pages 98-127, Oxford: Blackwell Publishing Ltd. and Russell A. D., Ahonkhai I. and Rogers, D. T. (1979) A review: microbiological applications of the inactivation of antibiotics and other antimicrobial agents. Journal of Applied Bacteriology, 46, 207-245). Thus, samples were removed at desired time points and then any hydrogen peroxide present in the sample was neutralised (i.e. deactivated) using catalase.
# (§2) In the examples, catalase from bovine liver was used to neutralise the activity of any remaining hydrogen peroxide (as described in Russell A. D., Ahonkhai I. and Rogers, D. T. (1979), A review: microbiological applications of the inactivation of antibiotics and other antimicrobial agents, Journal of Applied Bacteriology, 46, 207-245) after the appropriate contact time during the experiments. Control experiments were conducted to establish whether the neutraliser nullified the activity of hydrogen peroxide and whether the neutraliser was toxic to the micro-organisms tested.
# (§3) The effect of acidic pH conditions (pH 3.47 to 3.54) were investigated with and without hydrogen peroxide and air.
# (§4) A quantitative suspension test (as described in Reybrouck G. (1998), The testing of disinfectants, International Biodeterioration and Biodegradation, 41, 269-272) based on the general principles of European quantitative suspension tests (BS EN1040:2005: Chemical disinfectants and antiseptics, Quantitative suspension test for the evaluation of basic bactericidal activity of chemical disinfectants and antiseptics, Test method and requirements (phase 1), London: British Standards Institute; BS EN 1276:1997: Chemical disinfectants and antiseptics, Quantitative suspension test for the evaluation of bactericidal activity of chemical disinfectants and antiseptics used in food, industrial, domestic, and institutional areas, Test method and requirements (phase 2, step 1). London: British Standards Institute) was used to establish the basic level of activity of the catalyst in the absence of organic matter. All tests were performed independently at least three times unless otherwise stated. Low concentrations (0.2-1% w/v) of hydrogen peroxide were used so that increases in antimicrobial activity could be detected if present.
# (§5) Bacteria were inoculated into 10 ml volumes of nutrient broth and incubated at 37° C. for 18 to 24 hours at a shaking speed of 100 revolutions/minute. After incubation, the bacteria were washed by centrifugation to remove the nutrient broth; supernatants were discarded and the bacterial pellets were resuspended in sterilised distilled water. 7.5 ml of the washed bacterial suspension was added to 67.5 ml of hydrogen peroxide and/or distilled water to give a specific final concentration (ranging from 0 to 1% w/v—see Tables below) of hydrogen peroxide and approximately 8 log10 colony forming units (CFU)/mL of bacteria. The resultant mixture was stirred magnetically throughout the experiment. Where applicable, 1 g (+/−0.1 g) of either modified PAN fibre (referred to as PAN1 (control) or PAN2 (control)) or catalyst (referred to as PAN1 catalyst or PAN2 catalyst or PAN3 catalyst) comprising PAN fibres was added to the resultant mixture. The experiments were performed with or without air. If air was used, 2.5 L/min was supplied via. a filtered air pump and a sterilised Pyrex gas distribution tube.
# (§6) After a specific contact time (see Tables below), 1 ml aliquots were removed from the experimental flask and transferred into 9 ml of neutraliser (catalase) for 5 minutes to inactivate any remaining hydrogen peroxide.
# [2] = system: Staphylococcus aureus ATCC 6538; assay: as above; assay type: cell-based; conditions: 1% w/v H2O2
# Excerpt: as §1, §2, §3, §4, §5, §6
# [3] = air 2.5 L/min, 50 min, listed as hydrogen peroxide
# [4] = no air, 60 min, listed as hydrogen peroxide
# [5] = acidic pH 3.47 to 3.54, air 2.5 L/min, 10 min
# [6] = acidic pH 3.47 to 3.54, air 2.5 L/min, 20 min
# [7] = acidic pH 3.47 to 3.54, air 2.5 L/min, 30 min
# [8] = acidic pH 3.47 to 3.54, air 2.5 L/min, 40 min
# [9] = acidic pH 3.47 to 3.54, air 2.5 L/min, 50 min
# [10] = acidic pH 3.47 to 3.54, air 2.5 L/min, 60 min
# [11] = acidic pH 3.47 to 3.54, no air, 10 min
# [12] = acidic pH 3.47 to 3.54, no air, 20 min
# [13] = acidic pH 3.47 to 3.54, no air, 30 min
# [14] = acidic pH 3.47 to 3.54, no air, 40 min
# [15] = acidic pH 3.47 to 3.54, no air, 50 min
# [16] = acidic pH 3.47 to 3.54, no air, 60 min
smiles,measurement,setting,value
"OO [Example H2O2, hydrogen peroxide]",Mean log10 reduction in CFU/ml,"[1]; air 2.5 L/min, 10 min",1.33 (0.27) log10 CFU/ml
same,Mean log10 reduction in CFU/ml,"[1]; air 2.5 L/min, 20 min",2.68 (0.22) log10 CFU/ml
same,Mean log10 reduction in CFU/ml,"[1]; air 2.5 L/min, 30 min",3.98 (0.28) log10 CFU/ml
same,Mean log10 reduction in CFU/ml,"[1]; air 2.5 L/min, 40 min",4.79 (0.43) log10 CFU/ml
same,Mean log10 reduction in CFU/ml,"[1]; air 2.5 L/min, 50 min",>5.58 (0) log10 CFU/ml
same,Mean log10 reduction in CFU/ml,[1]; [3],greater than 5 log10 CFU/ml
same,Mean log10 reduction in CFU/ml,"[1]; air 2.5 L/min, 60 min",>5.58 (0) log10 CFU/ml
same,Mean log10 reduction in CFU/ml,"[1]; no air, 10 min",1.01 (0.36) log10 CFU/ml
same,Mean log10 reduction in CFU/ml,"[1]; no air, 20 min",2.20 (0.42) log10 CFU/ml
same,Mean log10 reduction in CFU/ml,"[1]; no air, 30 min",2.67 (0.52) log10 CFU/ml
same,Mean log10 reduction in CFU/ml,"[1]; no air, 40 min",3.52 (0.57) log10 CFU/ml
same,Mean log10 reduction in CFU/ml,"[1]; no air, 50 min",4.21 (0.19) log10 CFU/ml
same,Mean log10 reduction in CFU/ml,"[1]; no air, 60 min",4.76 (0.39) log10 CFU/ml
same,Mean log10 reduction in CFU/ml,[1]; [4],4.76 log10 CFU/ml
same,Mean log10 reduction in CFU/ml,[1]; [5],2.16 log10 CFU/ml
same,Mean log10 reduction in CFU/ml,[1]; [6],3.35 log10 CFU/ml
same,Mean log10 reduction in CFU/ml,[1]; [7],4.46 log10 CFU/ml
same,Mean log10 reduction in CFU/ml,[1]; [8],≧5.46 log10 CFU/ml
same,Mean log10 reduction in CFU/ml,"[1]; acidic pH 3.47 to 3.54, air 2.5 L/min, 40 min, listed as hydrogen peroxide",greater than 5 log10 CFU/ml
same,Mean log10 reduction in CFU/ml,[1]; [9],>5.46 log10 CFU/ml
same,Mean log10 reduction in CFU/ml,[1]; [10],>5.46 log10 CFU/ml
same,Mean log10 reduction in CFU/ml,[1]; [11],2.43 log10 CFU/ml
same,Mean log10 reduction in CFU/ml,[1]; [12],3.40 log10 CFU/ml
same,Mean log10 reduction in CFU/ml,[1]; [13],4.21 log10 CFU/ml
same,Mean log10 reduction in CFU/ml,[1]; [14],≧5.11 log10 CFU/ml
same,Mean log10 reduction in CFU/ml,"[1]; acidic pH 3.47 to 3.54, no air, 40 min, listed as hydrogen peroxide",greater than 5 log10 CFU/ml
same,Mean log10 reduction in CFU/ml,[1]; [15],≧5.30 log10 CFU/ml
same,Mean log10 reduction in CFU/ml,[1]; [16],>5.46 log10 CFU/ml
same,Mean log10 reduction in CFU/ml,"[2]; air 2.5 L/min, 10 min",0.61 log10 CFU/ml
same,Mean log10 reduction in CFU/ml,"[2]; air 2.5 L/min, 20 min",1.27 log10 CFU/ml
same,Mean log10 reduction in CFU/ml,"[2]; air 2.5 L/min, 30 min",2.57 log10 CFU/ml
same,Mean log10 reduction in CFU/ml,"[2]; air 2.5 L/min, 40 min",3.84 log10 CFU/ml
same,Mean log10 reduction in CFU/ml,"[2]; air 2.5 L/min, 50 min",5.07 log10 CFU/ml
same,Mean log10 reduction in CFU/ml,[2]; [3],5 log10 CFU/ml
same,Mean log10 reduction in CFU/ml,"[2]; air 2.5 L/min, 60 min",5.40 log10 CFU/ml
same,Mean log10 reduction in CFU/ml,"[2]; no air, 10 min",0.70 log10 CFU/ml
same,Mean log10 reduction in CFU/ml,"[2]; no air, 20 min",1.43 log10 CFU/ml
same,Mean log10 reduction in CFU/ml,"[2]; no air, 30 min",2.88 log10 CFU/ml
same,Mean log10 reduction in CFU/ml,"[2]; no air, 40 min",3.89 log10 CFU/ml
same,Mean log10 reduction in CFU/ml,"[2]; no air, 50 min",4.97 log10 CFU/ml
same,Mean log10 reduction in CFU/ml,"[2]; no air, 60 min",5.37 log10 CFU/ml
same,Mean log10 reduction in CFU/ml,[2]; [4],5 log10 CFU/ml
same,Mean log10 reduction in CFU/ml,[2]; [5],1.00 log10 CFU/ml
same,Mean log10 reduction in CFU/ml,[2]; [6],1.86 log10 CFU/ml
same,Mean log10 reduction in CFU/ml,[2]; [7],2.33 log10 CFU/ml
same,Mean log10 reduction in CFU/ml,[2]; [8],2.83 log10 CFU/ml
same,Mean log10 reduction in CFU/ml,[2]; [9],2.23 log10 CFU/ml
same,Mean log10 reduction in CFU/ml,[2]; [10],3.45 log10 CFU/ml
same,Mean log10 reduction in CFU/ml,[2]; [11],0.69 log10 CFU/ml
same,Mean log10 reduction in CFU/ml,[2]; [12],0.72 log10 CFU/ml
same,Mean log10 reduction in CFU/ml,[2]; [13],1.30 log10 CFU/ml
same,Mean log10 reduction in CFU/ml,[2]; [14],2.03 log10 CFU/ml
same,Mean log10 reduction in CFU/ml,[2]; [15],2.90 log10 CFU/ml
same,Mean log10 reduction in CFU/ml,[2]; [16],3.23 log10 CFU/ml
same,Mean log10 reduction in CFU/ml,"[2]; room temperature, no air, no catalyst, 10 min",0.43 log10 CFU/ml
same,Mean log10 reduction in CFU/ml,"[2]; room temperature, no air, no catalyst, 20 min",1.21 log10 CFU/ml
same,Mean log10 reduction in CFU/ml,"[2]; room temperature, no air, no catalyst, 30 min",2.25 log10 CFU/ml
same,Mean log10 reduction in CFU/ml,"[2]; room temperature, no air, no catalyst, 40 min",3.92 log10 CFU/ml
same,Mean log10 reduction in CFU/ml,"[2]; room temperature, no air, no catalyst, 50 min",4.57 log10 CFU/ml
same,Mean log10 reduction in CFU/ml,"[2]; room temperature, no air, no catalyst, 60 min",5.10 log10 CFU/ml
